Measured values as given in patent US11840686B2, “Modulation of prekallikrein (PKK) expression” (Ionis Pharmaceuticals, Inc., priority 2013, dated 2023).
Strand notation (5' to 3'): a small letter for the sugar, then the base; units joined by * are phosphorothioate-linked, units joined directly phosphodiester-linked; [ ] holds rarer units or linkages, { } end groups; capitals alone tell only the bases. e = 2'-O-(2-methoxyethyl) (MOE); [5mC] = 5-methylcytosine; d = 2'-deoxy (DNA)

Key:
[1] = test system: captopril-induced vascular permeability; assay: Combination of PKK and Factor 12 antisense oligonucleotides on captopril-induced vascular permeability (Example 15); type: in vivo, mouse; conditions: positive control: PBS + captopril 20 μg ip + HOE-140 30 μg ip
Procedure: Mice were treated varying doses of ISIS 410944, a 5-10-5 MOE gapmer targeting Factor 12 ([…]; SEQ ID NO: 2247), and ISIS 482584 in a captopril-induced vascular permeability model.
Group 1 consisted of 4 mice and was treated with PBS administered subcutaneously twice a week for 3 weeks. No other treatment was administered to Group 1 which served as a control group to measure the basal levels of vascular permeability.
Group 2 consisted of 8 mice and was treated with PBS administered subcutaneously twice a week for 3 weeks. At the end of the treatment period, the mice were intraperitoneally administered 20 μg of captopril.
Group 3 consisted of 4 mice and was treated with PBS administered subcutaneously twice a week for 3 weeks. At the end of the treatment period, the mice were intraperitoneally administered 20 μg of captopril. The mice were also intraperitoneally administered 30 μg of HOE-140. Group 3 served as a positive control for inhibition of captopril-induced vascular permeability.
Groups 4, 5, 6, 7, and 8 consisted of 8 mice each and were treated with 2.5 mg/kg, 5 mg/kg, 10 mg/kg, 20 mg/kg, or 40 mg/kg (corresponding to 5 mg/kg, 10 mg/kg, 20 mg/kg, 40 mg/kg, or 80 mg/kg per week), respectively of ISIS 482584 and ISIS 410944 each administered subcutaneously twice a week for 3 weeks. At the end of the treatment period, the mice of all the groups were intraperitoneally administered 20 μg of captopril. Groups 4-8 served as the experimental treatment groups for examining the effect of ISIS 410944 and ISIS 482584 on captopril-induced vascular permeability.
All the groups were then injected with 30 mg/kg of Evans Blue solution in the tail vein. The mice were sacrificed 30 min after the Evans Blue solution administration and colons, feet, ears, and intestines were harvested.
The harvested tissues from the feet, colon, and ears were placed in formamide solution overnight to leach out the Evans Blue dye. The formamide solution containing feet and ear tissue was heated to 55° C. and left overnight. Higher OD values are associated with higher levels of permeability.

PKK protein = assay: Plasma PKK protein levels in human KLKB1 transgenic mice (Example 7); type: in vivo; conditions: transgenic mice
How it was run: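 Human KLKB1 transgenic mice dosed subcutaneously twice weekly for 3 weeks with antisense oligonucleotides at 2.5, 5.0, 10 or 20 mg/kg/week. Plasma collected 48 hours after the final dose; PKK protein expressed as percent inhibition relative to PBS-treated controls.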

[2] = test system: high molecular weight kininogen (HMWK); assay: Western blot quantification of HMWK and HMWK cleavage product by densitometer (Example 14); type: in vivo, mouse; conditions: for Quantification of HMWK by densitometer / Quantification of HMWK cleavage product by densitometer: Western blot of blood samples, basal model
Text: Treatment with PKK antisense oligonucleotide results in stabilization of HMWK. Thus, vascular permeability is reduced in ISIS 482584-treated groups in a dose-dependent manner. […] Thus, reduced HMWK is caused by PKK cleavage of HMWK into cleavage products (including bradykinin and HKa). Data are presented in Intensity Units as measured by densitometer.

thrombus formation = assay: FeCl3 induced mesenteric thrombosis model, platelet aggregation and fibrin formation (Example 21); type: in vivo, mouse; conditions: Swiss-Webster mice; for Fibrin formation, fluorescent intensity / Platelet aggregation, fluorescent intensity: 80 mg/kg/wk
Procedure: ISIS 482584 was evaluated in the FeCl3 induced mesenteric thrombosis mouse model.
A group of 6-8 Swiss-Webster mice was treated with 40 mg/kg of ISIS 482584, administered subcutaneously twice a week for 3 weeks (weekly dose of 80 mg/kg). A control group of 6 Swiss-Webster mice was treated with PBS, administered subcutaneously twice a week for 3 weeks. Two days after the last dose of antisense oligonucleotide or PBS, mice from all groups were anesthetized with 75 mg/kg ketamine mixed with 25 mg/kg xylazine, administered by subcutaneous injection.
Rhodamine 6G dye at a dosage of 5 mg/kg was injected subcutaneously to stain platelets. Alexa-647-labeled anti-fibrinogen antibody at a dosage of 1 mg/kg was injected via tail vein injection to stain fibrin. The abdomen was opened by a middle incision. The visceral mesentery was spread on a glass coverslip and the mesenteric arterioles (70-120 μm) were located by observation under a microscope. Thrombus formation was induced by applying of cotton threads (2×0.3 mm) pre-saturated with 6% FeCl3 solution directly on the target vessel. After three minutes of exposure, the thread was removed and the color intensities of both the dyes were recorded by fluorescent microscopy (Olympus FluoView 1000 confocal laser scanning microscope) with appropriate filters for 70 min.
The results for platelet aggregation in the control and treatment groups are presented in Table 83, expressed in arbitrary units (a.u.). […] The results for fibrin formation in the control and treatment groups are presented in Table 84, also expressed in arbitrary units (a.u.).

Compound: NC(N)=NCCC[C@@H](N)C(=O)N[C@@H](CCCN=C(N)N)C(=O)N1CCC[C@H]1C(=O)N1C[C@H](O)C[C@H]1C(=O)NCC(=O)N[C@@H](Cc1cccs1)C(=O)N[C@@H](CO)C(=O)N1Cc2ccccc2C[C@@H]1C(=O)N1[C@H](C(=O)N[C@@H](CCCN=C(N)N)C(=O)O)C[C@@H]2CCCC[C@@H]21 [HOE-140, Icatibant, reference compound]
- OD600 nm of Evans Blue dye, Colon [1]: 0.23
- OD600 nm of Evans Blue dye, Ears [1]: 0.04
- OD600 nm of Evans Blue dye, Feet [1]: 0.06
- OD600 nm of Evans Blue dye, Intestines [1]: 0.15

Compound: Tes Ges mCes Aes Aes Gds Tds mCds Tds mCds Tds Tds Gds Gds mCds Aes Aes Aes mCes Ae [ISIS 546254]
- human PKK protein inhibition (PKK protein; 2.5 mg/kg/week s.c. twice a week for 3 weeks): 0%
- human PKK protein inhibition (PKK protein; 5.0 mg/kg/week s.c. twice a week for 3 weeks): 36%
- human PKK protein inhibition (PKK protein; 10 mg/kg/week s.c. twice a week for 3 weeks): 51%
- human PKK protein inhibition (PKK protein; 20 mg/kg/week s.c. twice a week for 3 weeks): 76%

Compound: ISIS 482584: 5-10-5 MOE gapmer targeting murine PKK, GGCATATTGGTTTTTGGAAT; SEQ ID NO: 2244 (antisense eG*eG*e[5mC]*eA*eT*dA*dT*dT*dG*dG*dT*dT*dT*dT*dT*eG*eG*eA*eA*eT)
- Quantification of HMWK by densitometer ([2]; 10 mg/kg/week): 507 Intensity Units
- Quantification of HMWK cleavage product by densitometer ([2]; 10 mg/kg/week): 414774 Intensity Units
- Quantification of HMWK by densitometer ([2]; 20 mg/kg/week): 608 Intensity Units
- Quantification of HMWK cleavage product by densitometer ([2]; 20 mg/kg/week): 403360 Intensity Units
- Quantification of HMWK by densitometer ([2]; 40 mg/kg/week): 873 Intensity Units
- Quantification of HMWK cleavage product by densitometer ([2]; 40 mg/kg/week): 388135 Intensity Units
- Quantification of HMWK by densitometer ([2]; 80 mg/kg/week): 7279 Intensity Units
- Quantification of HMWK cleavage product by densitometer ([2]; 80 mg/kg/week): 204482 Intensity Units
- Quantification of HMWK by densitometer ([2]; 160 mg/kg/week): 21358 Intensity Units
- Quantification of HMWK cleavage product by densitometer ([2]; 160 mg/kg/week): 19936 Intensity Units
- HMWK cleavage product ([2]; vs PBS control, dose-dependent): lower HMWK cleavage product
- levels of HMWK ([2]; vs PBS control, dose-dependent): higher levels of HMWK
- Fibrin formation, fluorescent intensity (thrombus formation; time 752 sec): 54 a.u.
- Platelet aggregation, fluorescent intensity (thrombus formation; time 752 sec): 74 a.u.
- Fibrin formation, fluorescent intensity (thrombus formation; time 1018 sec): 7 a.u.
- Platelet aggregation, fluorescent intensity (thrombus formation; time 1018 sec): 11 a.u.
- Fibrin formation, fluorescent intensity (thrombus formation; time 1284 sec): 1 a.u.
- Platelet aggregation, fluorescent intensity (thrombus formation; time 1284 sec): 7 a.u.
- Fibrin formation, fluorescent intensity (thrombus formation; time 1550 sec): 10 a.u.
- Platelet aggregation, fluorescent intensity (thrombus formation; time 1550 sec): 0 a.u.
- Fibrin formation, fluorescent intensity (thrombus formation; time 1815 sec): 16 a.u.
- Platelet aggregation, fluorescent intensity (thrombus formation; time 1815 sec): 0 a.u.
- Fibrin formation, fluorescent intensity (thrombus formation; time 2081 sec): 15 a.u.
- Platelet aggregation, fluorescent intensity (thrombus formation; time 2081 sec): 0 a.u.
- Fibrin formation, fluorescent intensity (thrombus formation; time 2347 sec): 61 a.u.
- Platelet aggregation, fluorescent intensity (thrombus formation; time 2347 sec): 0 a.u.
- Fibrin formation, fluorescent intensity (thrombus formation; time 2613 sec): 88 a.u.
- Platelet aggregation, fluorescent intensity (thrombus formation; time 2613 sec): 38 a.u.
- Fibrin formation, fluorescent intensity (thrombus formation; time 2879 sec): 141 a.u.
- Platelet aggregation, fluorescent intensity (thrombus formation; time 2879 sec): 148 a.u.
- Fibrin formation, fluorescent intensity (thrombus formation; time 3144 sec): 150 a.u.
- Platelet aggregation, fluorescent intensity (thrombus formation; time 3144 sec): 129 a.u.
- Fibrin formation, fluorescent intensity (thrombus formation; time 3410 sec): 173 a.u.
- Platelet aggregation, fluorescent intensity (thrombus formation; time 3410 sec): 169 a.u.
- Fibrin formation, fluorescent intensity (thrombus formation; time 3676 sec): 160 a.u.
- Platelet aggregation, fluorescent intensity (thrombus formation; time 3676 sec): 131 a.u.
- Fibrin formation, fluorescent intensity (thrombus formation; time 3944 sec): 128 a.u.
- Platelet aggregation, fluorescent intensity (thrombus formation; time 3944 sec): 87 a.u.
- fibrin formation (thrombus formation; 80 mg/kg/week, vs PBS): Fibrin formation was reduced
- platelet aggregation (thrombus formation; 80 mg/kg/week, vs PBS): Platelet aggregation was reduced
